Results from ChEMBL document CHEMBL6083206, “SLL-1A-16 suppresses proliferation and induces autophagy in non-small-cell lung cancer cells via the AKT/mTOR signaling pathway” (RSC Med Chem, 2024).
Calls of active or inactive are those of the source. The calls are words filed in the database; no cut-off is given here.

Tests used:
A549 [1] = test: Inhibition of Akt/mTOR signalling pathway in human A549 cells assessed as decrease in phosphorylated PRAS40 expression by Western blot analysis; format: cell-based; settings: dose 10-30 µM
A549 [2] = test: Inhibition of Akt/mTOR signalling pathway in human A549 cells assessed as decrease in mTOR expression by Western blot analysis; format: cell-based; settings: dose 10-30 µM
NCI-H460 [3] = test: Induction of apoptosis in human NCI-H460 cells assessed as early apoptotic cells at 10 uM incubated for 24 hrs by Annexin V-FITC/PI staining based flow cytometric analysis (reference value: 3.22 %); format: functional
A549 [4] = test: Induction of apoptosis in human A549 cells assessed as viable cells at 10 uM incubated for 24 hrs by Annexin V-FITC/PI staining based flow cytometric analysis (reference value: 96.29 %); format: functional; settings: read-out: Activity
A549 [5] = test: Inhibition of Akt/mTOR signalling pathway in human A549 cells assessed as decrease in phosphorylated Akt expression by Western blot analysis; format: cell-based; settings: dose 10-30 µM
NCI-H460 [6] = test: Induction of apoptosis in human NCI-H460 cells assessed as viable cells at 10 uM incubated for 24 hrs by Annexin V-FITC/PI staining based flow cytometric analysis (reference value: 91.95 %); format: functional; settings: read-out: Activity
A549 [7] = test: Cell cycle arrest in human A549 cells assessed as accumulation of cells at G1 phase at 10 uM incubated for 24 hrs by PI staining based flow cytometric analysis (reference value: 56.42 +/- 1.36 %); format: functional
NCI-H460 [8] = test: Cell cycle arrest in human NCI-H460 cells assessed as accumulation of cells at G1-S phase at 10 to 30 uM incubated for 24 hrs by PI staining based flow cytometric analysis; format: functional; settings: dose 10-30 µM
A549 [9] = test: Induction of apoptosis in human A549 cells assessed as upregulation of cleaved caspase 3 expression at 10 to 30 uM by Western blot analysis; format: functional, cell-based; settings: dose 10-30 µM
A549 [10] = test: Induction of autophagy in human A549 cells assessed as increase in LC3-II expression at 10 to 30 uM incubated for 24 hrs by Western blot analysis; format: functional, cell-based; settings: dose 10-30 µM
A549 [11] = test: Inhibition of Akt/mTOR signaling pathway in human A549 cells assessed as decrease in phosphorylated PRAS40 expression in presence of temsirolimus by Western blot analysis; format: cell-based
NCI-H460 [12] = test: Induction of apoptosis in human NCI-H460 cells assessed as viable cells at 30 uM incubated for 24 hrs by Annexin V-FITC/PI staining based flow cytometric analysis (reference value: 91.95 %); format: functional; settings: read-out: Activity
NCI-H460 [13] = test: Inhibition of Akt/mTOR signalling pathway in human NCI-H460 cells assessed as decrease in phosphorylated Akt expression by Western blot analysis; format: cell-based; settings: dose 10-30 µM
A549 [14] = test: Induction of apoptosis in human A549 cells assessed as early apoptotic cells at 10 uM incubated for 24 hrs by Annexin V-FITC/PI staining based flow cytometric analysis (reference value: 0.44 %); format: functional
A549 [15] = test: Cell cycle arrest in human A549 cells assessed as downregulation of CDK4 expression at 10 to 30 uM by Western blot analysis; format: functional, cell-based; settings: dose 10-30 µM
BEAS-2B = test: Cytotoxicity against human BEAS-2B cells assessed as inhibition of cell viability at 3 to 300 uM incubated for 48 hrs by CCK8 assay; format: toxicity, cell-based; settings: dose 3-300 µM
[16] = tested on: Gefitinib-resistant A549/G cell; test: Inhibition of Akt/mTOR signaling pathway in human Gefitinib-resistant A549/G cell assessed as decrease in phosphorylated 4EBP1 expression in presence of gefitinib by Western blot analysis; format: cell-based
A549 [17] = test: Induction of apoptosis in human A549 cells assessed as viable cells at 30 uM incubated for 24 hrs by Annexin V-FITC/PI staining based flow cytometric analysis (reference value: 96.29 %); format: functional; settings: read-out: Activity
NCI-H460 [18] = test: Cell cycle arrest in human NCI-H460 cells assessed as downregulation of CDK4 expression at 10 to 30 uM by Western blot analysis; format: functional, cell-based; settings: dose 10-30 µM
A549 [19] = test: Induction of apoptosis in human A549 cells assessed as early apoptotic cells at 30 uM incubated for 24 hrs by Annexin V-FITC/PI staining based flow cytometric analysis (reference value: 0.44 %); format: functional
A549 [20] = test: Cell cycle arrest in human A549 cells assessed as accumulation of cells at G1 phase at 30 uM incubated for 24 hrs by PI staining based flow cytometric analysis (reference value: 56.42 +/- 1.36 %); format: functional
NCI-H460 [21] = test: Induction of apoptosis in human NCI-H460 cells assessed as upregulation of cleaved caspase 3 expression at 10 to 30 uM by Western blot analysis; format: functional, cell-based; settings: dose 10-30 µM
NCI-H460 [22] = test: Induction of apoptosis in human NCI-H460 cells assessed as upregulation of Bax expression at 10 to 30 uM by Western blot analysis; format: functional, cell-based; settings: dose 10-30 µM
A549 [23] = test: Induction of apoptosis in human A549 cells assessed as necrotic cells at 10 uM incubated for 24 hrs by Annexin V-FITC/PI staining based flow cytometric analysis (reference value: 0.97 %); format: functional
NCI-H460 [24] = test: Inhibition of Akt/mTOR signalling pathway in human NCI-H460 cells assessed as decrease in mTOR expression by Western blot analysis; format: cell-based; settings: dose 10-30 µM
A549 [25] = test: Induction of apoptosis in human A549 cells assessed as necrotic cells at 30 uM incubated for 24 hrs by Annexin V-FITC/PI staining based flow cytometric analysis (reference value: 0.97 %); format: functional
A549 [26] = test: Induction of apoptosis in human A549 cells assessed as late apoptotic cells at 10 uM incubated for 24 hrs by Annexin V-FITC/PI staining based flow cytometric analysis (reference value: 2.29 %); format: functional
NCI-H460 [27] = test: Induction of apoptosis in human NCI-H460 cells assessed as necrotic cells at 10 uM incubated for 24 hrs by Annexin V-FITC/PI staining based flow cytometric analysis (reference value: 0.68 %); format: functional
NCI-H460 [28] = test: Induction of apoptosis in human NCI-H460 cells assessed as decrease in Bcl2 expression at 10 to 30 uM by Western blot analysis; format: functional, cell-based; settings: dose 10-30 µM
NCI-H460 [29] = test: Cell cycle arrest in human NCI-H460 cells assessed as downregulation of cyclin D1 expression at 10 to 30 uM by Western blot analysis; format: functional, cell-based; settings: dose 10-30 µM
A549 [30] = test: Inhibition of Akt/mTOR signaling pathway in human A549 cells assessed as decrease in mTOR expression in presence of temsirolimus by Western blot analysis; format: cell-based
NCI-H460 [31] = test: Inhibition of Akt/mTOR signalling pathway in human NCI-H460 cells assessed as decrease in phosphorylated P70 S6k expression by Western blot analysis; format: cell-based; settings: dose 10-30 µM
[32] = tested on: Gefitinib-resistant A549/G cell; test: Antiproliferative activity against human Gefitinib-resistant A549/G cell assessed as inhibition of cell proliferation in presence of gefitinib; format: functional, cell-based
A549 [33] = test: Induction of autophagy in human A549 cells assessed as increase in Atg5 expression at 10 to 30 uM incubated for 24 hrs by Western blot analysis; format: functional, cell-based; settings: dose 10-30 µM
A549 [34] = test: Induction of apoptosis in human A549 cells assessed as decrease in Bcl2 expression at 10 to 30 uM by Western blot analysis; format: functional, cell-based; settings: dose 10-30 µM
NCI-H460 [35] = test: Induction of autophagy in human NCI-H460 cells assessed as increase in LC3-II expression at 10 to 30 uM incubated for 24 hrs by Western blot analysis; format: functional, cell-based; settings: dose 10-30 µM

N#C[Se]CCCNC(=O)c1cccnc1
inhibition (A549 [1]): Dose-dependent-effect; Inhibitory Ability Of Compound Is Comparable To Temsirolimus
inhibition (A549 [2]): Dose-dependent-effect; Inhibitory Ability Of Compound Is Comparable To Temsirolimus
Activity (NCI-H460 [3]): 5.81%
viability at 10 µM (A549 [4]): 84.8%
inhibition (A549 [5]): Dose-dependent-effect; Inhibitory Ability Of Compound Is Comparable To Temsirolimus
viability at 10 µM (NCI-H460 [6]): 81.5%
Activity (A549 [7]): 75.43%
Activity (NCI-H460 [8]): Active
Activity (A549 [9]): Active
Activity (A549 [10]): Active
inhibition (A549 [11]): Active
viability at 30 µM (NCI-H460 [12]): 74.7%
inhibition (NCI-H460 [13]): Dose-dependent-effect; Inhibitory Ability Of Compound Is Comparable To Temsirolimus
Activity (A549 [14]): 3.66%
Activity (A549 [15]): Active; G1 Phase Cell Cycle Arrest Observed
Activity (BEAS-2B): Toxic
inhibition [16]: Active
viability at 30 µM (A549 [17]): 75.9%
Activity (NCI-H460 [18]): Active; G1 Phase Cell Cycle Arrest Observed
Activity (A549 [19]): 4.58%
Activity (A549 [20]): 78.51%
Activity (NCI-H460 [21]): Active
Activity (NCI-H460 [22]): Active
Activity (A549 [23]): 3.03%
inhibition (NCI-H460 [24]): Dose-dependent-effect; Inhibitory Ability Of Compound Is Comparable To Temsirolimus
Activity (A549 [25]): 5.12%
Activity (A549 [26]): 8.48%
Activity (NCI-H460 [27]): 3.73%
Activity (NCI-H460 [28]): Active
Activity (NCI-H460 [29]): Active; G1 Phase Cell Cycle Arrest Observed
inhibition (A549 [30]): Active
inhibition (NCI-H460 [31]): Dose-dependent-effect; Inhibitory Ability Of Compound Is Comparable To Temsirolimus
Activity [32]: Active
Activity (A549 [33]): Active
Activity (A549 [34]): Active
Activity (NCI-H460 [35]): Active
